Results on 7 molecules are retold here after ChEMBL document CHEMBL3259765, “ProTides of N-(3-(5-(2'-deoxyuridine))prop-2-ynyl)octanamide as potential anti-tubercular and anti-viral agents” (Bioorg Med Chem, 2014).

In brackets after ≈: the same amount, converted by molar mass. Activity calls are given as the source filed them. No cut-off for these calls is given here.

In the first test the test system is Escherichia coli. The test is described as follows: Antibacterial activity against Escherichia coli DH5[alpha] ATCC 53868 after overnight incubation by HT-SPOTi assay. The format is functional, organism-based.
Details: not given
As to `CCCCCCCC(=O)NCC#Cc1cn([C@H]2C[C@H](O)[C@@H](COP(=O)(NC(C)(C)C(=O)OCc3ccccc3)Oc3ccccc3)O2)c(=O)[nH]c1=O` (some centres undefined), the result was inactive.
The same measure, in the same setting: under `CCCCCCCC(=O)NCC#Cc1cn([C@H]2C[C@H](O)[C@@H](COP(=O)(N[C@H](C(=O)OCc3ccccc3)C(C)C)Oc3ccccc3)O2)c(=O)[nH]c1=O` (some centres undefined) stands “inactive”; under `CCCCCCCC(=O)NCC#Cc1cn([C@H]2C[C@H](O)[C@@H](COP(=O)(NCC(=O)OCc3ccccc3)Oc3ccccc3)O2)c(=O)[nH]c1=O` (some centres undefined), “inactive”.
Same read-out and setting: under `CCCCCCCC(=O)NCC#Cc1cn([C@H]2C[C@H](O)[C@@H](COP(=O)(N[C@@H](C)C(=O)OCC)Oc3cccc4ccccc34)O2)c(=O)[nH]c1=O` (some centres undefined) stands “inactive”.
Still for that read-out and setting: under `CCCCCCCC(=O)NCC#Cc1cn([C@H]2C[C@H](O)[C@@H](COP(=O)(N[C@@H](C)C(=O)OCCC)Oc3ccccc3)O2)c(=O)[nH]c1=O` (some centres undefined) stands “inactive”.
`CCCCCCCC(=O)NCC#Cc1cn([C@H]2C[C@H](O)[C@@H](COP(=O)(N[C@H](C)C(=O)OCc3ccccc3)Oc3ccccc3)O2)c(=O)[nH]c1=O` (some centres undefined): the outcome was inactive.
Consider `CCCCCCCC(=O)NCC#Cc1cn([C@H]2C[C@H](O)[C@@H](COP(=O)(N[C@@H](C)C(=O)OCC)Oc3ccccc3)O2)c(=O)[nH]c1=O` (some centres undefined), for which the result was inactive.

In a further test the test system is Mycobacterium tuberculosis. The test can be described thus: Antibacterial activity against Mycobacterium tuberculosis H37Rv ATCC 27294 up to 2 weeks by HT-SPOTi assay. The format is functional. The following applies: H37Rv ATCC 27294, 336 h.
Regarding `CCCCCCCC(=O)NCC#Cc1cn([C@H]2C[C@H](O)[C@@H](COP(=O)(NC(C)(C)C(=O)OCc3ccccc3)Oc3ccccc3)O2)c(=O)[nH]c1=O` (some centres undefined), the MIC was above 125 µg/mL.
Same read-out and setting: for `CCCCCCCC(=O)NCC#Cc1cn([C@H]2C[C@H](O)[C@@H](COP(=O)(N[C@H](C(=O)OCc3ccccc3)C(C)C)Oc3ccccc3)O2)c(=O)[nH]c1=O` (some centres undefined) the value was 31.2 µg/mL (≈ 41.5 µM).
`CCCCCCCC(=O)NCC#Cc1cn([C@H]2C[C@H](O)[C@@H](COP(=O)(NCC(=O)OCc3ccccc3)Oc3ccccc3)O2)c(=O)[nH]c1=O` (some centres undefined) yielded an MIC above 250 µg/mL.
The same measure, in the same setting: for `CCCCCCCC(=O)NCC#Cc1cn([C@H]2C[C@H](O)[C@@H](COP(=O)(N[C@@H](C)C(=O)OCC)Oc3cccc4ccccc34)O2)c(=O)[nH]c1=O` (some centres undefined) the value was 125 µg/mL (≈ 175 µM); for `CCCCCCCC(=O)NCC#Cc1cn([C@H]2C[C@H](O)[C@@H](COP(=O)(N[C@@H](C)C(=O)OCCC)Oc3ccccc3)O2)c(=O)[nH]c1=O` (some centres undefined), 125 µg/mL (≈ 185 µM).
On the same count and under the same terms, under `CCCCCCCC(=O)NCC#Cc1cn([C@H]2C[C@H](O)[C@@H](COP(=O)(N[C@H](C)C(=O)OCc3ccccc3)Oc3ccccc3)O2)c(=O)[nH]c1=O` (some centres undefined) stands 125 µg/mL (≈ 172 µM).
Turning to `CCCCCCCC(=O)NCC#Cc1cn([C@H]2C[C@H](O)[C@@H](COP(=O)(N[C@@H](C)C(=O)OCC)Oc3ccccc3)O2)c(=O)[nH]c1=O` (some centres undefined), the MIC was 250 µg/mL (≈ 377 µM).
